Test results from patent publication US20240132480A1, “INHIBITORS OF MYCOBACTERIUM TUBERCULOSIS LIPOAMIDE DEHYDROGENASE” (Cornell University, priority 2021, published 2024).
Where two headings read alike, the source gives them in different places.

Columns and labels:
[1] = biological target: Mtb Lpd (Mycobacterium tuberculosis (strain ATCC 25618 / H37Rv), UniProt P9WHH9); type: biochemical
[2] = microsomes
[3] = 30 min preincubation, read-out: LPD IC50 (μM) w/ 30 min preincubation

Compound	IC50 ([1]; read-out: LPD IC50)	Human Liver Microsome Stability [2]	IC50 [1, 3]
COc1ccc(CNC(=O)CN(C)S(=O)(=O)c2cc(C)cc3c[nH]nc23)cc1 [Example 51]	0.049 µM	70 µL/min/mg	
Cc1cc(S(=O)(=O)N(C)CC(=O)Nc2ccc3c(c2)N(C2COC2)CCO3)c2[nH]ncc2c1 [Example 169]	0.038 µM	39 µL/min/mg	
Cc1cc(S(=O)(=O)N(C)CC(=O)Nc2ccn3cccc3c2)c2[nH]ncc2c1 [Example 46, 2-((N,5-dimethyl-1H-indazole)-7-sulfonamido)-N-(imidazo[1,5-a]pyridin-7-yl)acetamide]	0.0067 µM	4 µL/min/mg	
CN(CC(=O)Nc1ccc2c(c1)OCCN2C1CCOCC1)S(=O)(=O)c1cc(Cl)cc2c(F)n[nH]c12 [Example 165]	0.037 µM	162 µL/min/mg	
Cc1cc(S(=O)(=O)N(C)CC(=O)Nc2ccn(C3CCOCC3)c(=O)c2)c2[nH]ncc2c1 [Example 100]	0.05 µM	6 µL/min/mg	
Cc1cc(S(=O)(=O)N2CC[C@H]2C(=O)NCC#N)c2[nH]ncc2c1 [Example 202]	0.323 µM	4 µL/min/mg	
Cc1cc(S(=O)(=O)N(C)CC(=O)Nc2ccc3c(c2)OCCN3C2COC2)c2[nH]ncc2c1 [Example 94]	0.0275 µM	45 µL/min/mg	
Cc1cc(S(=O)(=O)N2CC[C@H]2C(=O)Nc2ccc3cccnc3c2)c2[nH]ncc2c1 [Example 106]	0.019 µM	236 µL/min/mg	
Cc1cc(S(=O)(=O)N2CC[C@H]2C(=O)Nc2ccc(N3CCOCC3)c(Cl)c2)c2[nH]c(C#N)cc2c1 [Example 195]	0.111 µM	64 µL/min/mg	
C#CCNC(=O)[C@@H]1CCN1S(=O)(=O)c1cc(C)cc2cn[nH]c12 [Example 201]	0.222 µM	14 µL/min/mg	
Cc1cc(S(=O)(=O)N(C)CC(=O)Nc2cccc(N3CCCCC3=O)c2)c2[nH]c(C#N)cc2c1 [Example 219]		150 µL/min/mg	0.03 µM
COCc1n[nH]c2c(S(=O)(=O)N(C)CC(=O)Nc3ccc(OC)c(C)c3)cc(C)cc12 [Example 28]	3640 µM	>768 µL/min/mg	
Cc1cc(S(=O)(=O)N(C)CC(=O)NCc2ccccc2)c2n[nH]cc2c1 [Example 49]	0.031 µM	43 µL/min/mg	
Cc1cc(S(=O)(=O)N(C)CC(=O)Nc2ccn(C)c(=O)c2)c2[nH]nc(C)c2c1 [Example 36]	0.0657 µM	-26 µL/min/mg	
Cc1cc(S(=O)(=O)N(C)CC(=O)Nc2ccn(C3CC3)c(=O)c2)c2[nH]ncc2c1 [Example 98]	0.093 µM	28 µL/min/mg	
CCN(CC(=O)Nc1ccc(OC)c(Cl)c1)S(=O)(=O)c1cc(C)cc2cn[nH]c12 [Example 15, N-(3-chloro-4-methoxyphenyl)-2-((N-ethyl-5-methyl-1H-indazole)-7-sulfonamido)acetamide]	0.0417 µM	528 µL/min/mg	
CN(CC(=O)Nc1ccc2c(c1)OCCN2C1CCOCC1)S(=O)(=O)c1cc(C2(O)CC2)cc2cn[nH]c12 [Example 174]	0.55 µM	131 µL/min/mg	
Cc1cc(S(=O)(=O)N(C)CC(=O)Nc2ccn(C)c(=O)c2)c2n[nH]c(Cl)c2c1 [Example 176, 2-((3-chloro-N,5-dimethyl-1H-indazole)-7-sulfonamido)-N-(1-methyl-2-oxo-1,2-dihydropyridin-4-yl)acetamide]	0.252 µM	34 µL/min/mg	
Cc1cc(S(=O)(=O)N2CCC2C(=O)Nc2ccc(OCCN(C)C)c(C)c2)c2[nH]c(C#N)cc2c1 (stereo not shown) [Example 207]	0.225 µM	-7 µL/min/mg	0.06 µM
Cc1cc(S(=O)(=O)N2CC[C@H]2C(=O)Nc2ccc3c(c2)OCCO3)c2[nH]ncc2c1 [Example 39]	0.0237 µM	76 µL/min/mg	
CCN(CC(=O)Nc1ccc2c(c1)OCCN2C1CCOCC1)S(=O)(=O)c1cc(C)cc2c[nH]nc12 [Example 156]	0.0274 µM	58 µL/min/mg	

Compound	IC50 ([1]; read-out: LPD IC50)	Human Liver Microsome Stability [2]	IC50 [1, 3]
Cc1cc(S(=O)(=O)N(C)CC(=O)Nc2ccc3c(c2)OCCN3C2COC2)c2n[nH]c(F)c2c1 [Example 140]	0.0278 µM	66 µL/min/mg	
Cc1cc(S(=O)(=O)N(C)CC(=O)Nc2ccn(C)c(=O)c2)c2[nH]c(C#N)cc2c1 [Example 124, 2-((2-cyano-N,5-dimethyl-1H-indole)-7-sulfonamido)-N-(1-methyl-2-oxo-1,2-dihydropyridin-4-yl)acetamide]	0.0796 µM	51 µL/min/mg	
Cc1cc(S(=O)(=O)N(C)CC(=O)Nc2ccc3cnccc3c2)c2n[nH]cc2c1 [Example 57]	0.0328 µM	59 µL/min/mg	
Cc1cc(S(=O)(=O)N2CCC(C(=O)Nc3ccn(C)c(=O)c3)C2)c2[nH]ncc2c1 (stereo not shown) [Example 97]	0.0419 µM	-5 µL/min/mg	
CC#CCNC(=O)[C@@H]1CCN1S(=O)(=O)c1cc(C)cc2cn[nH]c12 [Example 200]	0.379 µM	13 µL/min/mg	
Cc1cc(S(=O)(=O)N(C)CC(=O)Nc2ccc(C3CCN(C4COC4)CC3)c(Cl)c2)c2[nH]ncc2c1 [Example 193, N-(3-chloro-4-(1-(oxetan-3-yl)piperidin-4-yl)phenyl)-2-((N,5-dimethyl-1H-indazole)-7-sulfonamido)acetamide]	0.053 µM	73 µL/min/mg	
CCCCNC(=O)CN(C)S(=O)(=O)c1cc(C)cc2cc(C#N)[nH]c12 [Example 223]		62 µL/min/mg	0.028 µM
Cc1cc(S(=O)(=O)N(C)CC(=O)Nc2ccc3ncccc3c2)c2n[nH]cc2c1 [Example 52]	0.0218 µM	113 µL/min/mg	
COc1ccc(NC(=O)[C@@H]2CCN2S(=O)(=O)c2cc(C)cc3cn[nH]c23)cc1Cl [Example 74]	0.0488 µM	325 µL/min/mg	
Cc1cc(S(=O)(=O)N(C)CC(=O)NC2COC2)c2n[nH]cc2c1 [Example 50]	0.0738 µM	8 µL/min/mg	
Cc1cc(S(=O)(=O)N(C)CC(=O)Nc2ccc3c(c2)OC(C)(C)C(=O)N3C)c2n[nH]cc2c1 [Example 159]	0.019 µM	67 µL/min/mg	
Cc1cc(S(=O)(=O)N(C)CC(=O)Nc2ccc(N3CCOCC3)c(Cl)c2)c2[nH]c(C#N)cc2c1 [Example 198]	0.087 µM	137 µL/min/mg	
Cc1cc(S(=O)(=O)N(C)CC(=O)Nc2ccn(C(C)C)c(=O)c2)c2[nH]ncc2c1 [Example 16]	0.0508 µM	35 µL/min/mg	
Cc1cc(S(=O)(=O)N(C)CC(=O)Nc2ccc3ccncc3c2)c2n[nH]cc2c1 [Example 63]	0.0321 µM	63 µL/min/mg	
O=C(Nc1ccc2c(c1)OCCN2C1CCOCC1)[C@@H]1CCN1S(=O)(=O)c1cc(Cl)cc2c(F)n[nH]c12 [Example 162]	0.059 µM	91 µL/min/mg	
Cc1cc(S(=O)(=O)N2CC[C@@H](C(=O)Nc3ccc4c(c3)OCCN4C3CCOCC3)C2)c2n[nH]cc2c1 [Example 122]	0.0304 µM	26 µL/min/mg	
Cc1cc(S(=O)(=O)N(C)CC(=O)Nc2ccc3c(c2)OCCN3C2CCOCC2)c2[nH]c(C#N)cc2c1 [Example 181, 2-((2-cyano-N,5-dimethyl-1H-indole)-7-sulfonamido)-N-(4-(tetrahydro-2H-pyran-4-yl)-3,4-dihydro-2H-benzo[b][1,4]oxazin-7-yl)acetamide]	0.095 µM	195 µL/min/mg	
CN(CC(=O)Nc1ccn(C)c(=O)c1)S(=O)(=O)c1cc(C(F)F)cc2c(F)n[nH]c12 [Example 183, 2-((5-(difluoromethyl)-3-fluoro-N-methyl-1H-indazole)-7-sulfonamido)-N-(1-methyl-2-oxo-1,2-dihydropyridin-4-yl)acetamide]	0.231 µM	-15 µL/min/mg	
CN(CC(=O)Nc1ccn(C)c(=O)c1)S(=O)(=O)c1cc(Cl)cc2cc(C#N)[nH]c12 [Example 225]		11 µL/min/mg	0.035 µM
Cc1cc(S(=O)(=O)N(C)CC(=O)Nc2nc3ccccc3o2)c2n[nH]cc2c1 [Example 76]	0.0994 µM	274 µL/min/mg	
Cc1cc(S(=O)(=O)N2CC[C@H]2C(=O)Nc2ccn(C)c(=O)c2)c2[nH]ncc2c1 [Example 27, (S)-1-((5-methyl-1H-indazol-7-yl)sulfonyl)-N-(1-methyl-2-oxo-1,2-dihydropyridin-4-yl)azetidine-2-carboxamide]	0.0545 µM	-8 µL/min/mg	
